Measured values taken from PubChem BioAssay AID651842 (Sanford-Burnham Center for Chemical Genomics, 2012).
pIC50: −log10 of the molar value. Where “and” joins values, the source holds several entries; their conditions need not be identical. Equal entries are not always repeated. Calls of active or inactive are those of the source.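 The calls were made as follows: active = IC50 of 35 µM or lower, which flags the compound as cytotoxic and nonspecific; inactive = the rest.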

System: Sufu-KO-LIGHT cells viability, ATP-Lite luminescence
Experiment: Sufu-null reporter cell viability loss – ATP luminescence, set 1, cytotoxicity control for Gli-SUFU antagonist project, SAR follow-up (AID 651842)

| Structure (SMILES) | IC50 | pIC50 |
| --- | --- | --- |
| O=C(Nc1cc(N2CCCCC2)ncn1)c1ccc(Br)o1 | > 35 µM (inactive) |  |
| COc1cccc(C(=O)Nc2cc(N3CCCCC3)ncn2)c1 |  | 5.64 |
| CCC(C)Nc1cc(NC(=O)c2ccccc2)ncn1 (centres undefined) | > 35 µM (inactive) |  |
| O=C(Nc1cc(N2CCCCC2)ncn1)c1cccs1 | > 35 µM (inactive) |  |
| CCCCNc1cc(NC(=O)c2ccccc2)ncn1 | > 35 µM (inactive) |  |
| CC(C)(C)OC(=O)N1CCN(c2cc(NC(=O)c3ccccc3)ncn2)CC1 |  | 6.62 |
| CCN(CC)c1cc(NC(=O)c2cccc(F)c2)ncn1 | > 35 µM (inactive) |  |
| CCN(CC)c1cc(NC(=O)c2cccc(C#N)c2)ncn1 | > 35 µM (inactive) |  |
| O=C(Nc1cc(N2CCCCC2)ncn1)c1ccsc1 | > 35 µM (inactive) |  |
| COc1ccccc1C(=O)Nc1cc(N2CCCCC2)ncn1 | > 35 µM (inactive) |  |
| CC1CCN(c2cc(NC(=O)c3ccccc3)ncn2)CC1 | > 35 µM (inactive) |  |
| CN(C)c1cc(NC(=O)c2ccccc2F)ncn1 | > 35 µM (inactive) |  |
| COc1cc(OC)cc(C(=O)Nc2cc(N3CCCC3)ncn2)c1 | > 35 µM (inactive) |  |
| COc1cc(OC)cc(C(=O)Nc2cc(N(C)C)ncn2)c1 | > 35 µM (inactive) |  |
| CN1CCN(c2cc(NC(=O)c3ccccc3)ncn2)CC1 | > 35 µM (inactive) |  |
| CN(C)c1cc(NC(=O)c2cccc(F)c2)ncn1 | > 35 µM (inactive) |  |
| O=C(Nc1cc(NCC2CCCO2)ncn1)c1ccccc1 (centres undefined) | > 35 µM (inactive) |  |
| O=C(Nc1cc(N2CCCC2)ncn1)c1ccccc1 | > 35 µM (inactive) |  |
| N#Cc1ccc(C(=O)Nc2cc(N3CCCCC3)ncn2)cc1 | > 35 µM (inactive) |  |
| O=C(Nc1cc(N2CCCCC2)ncn1)c1ccccc1F | > 35 µM (inactive) |  |
| Cc1nc(NC(=O)c2ccccc2)cc(N(C)C)n1 | > 35 µM (inactive) |  |
| O=C(Nc1cc(N2CCCCC2)ncn1)c1cc2ccccc2s1 |  | 5.16 |
| N#Cc1cccc(C(=O)Nc2cc(N3CCCCC3)ncn2)c1 | > 35 µM (inactive) |  |
| CC(C)Nc1cc(NC(=O)c2ccccc2)ncn1 | > 35 µM (inactive) |  |
| CC1CCCCN1c1cc(NC(=O)c2ccccc2)ncn1 (centres undefined) | > 35 µM (inactive) |  |
| CCCCN(C)c1cc(NC(=O)c2ccccc2)ncn1 |  | 5.54 |
| CCN(CC)c1cc(NC(=O)c2ccccc2)ncn1 | > 35 µM (inactive) |  |

| Structure (SMILES) | IC50 | pIC50 |
| --- | --- | --- |
| CN(C)c1cc(NC(=O)c2ccccc2)ncn1 | > 35 µM (inactive) |  |
| CC(C)(C)Nc1cc(NC(=O)c2ccccc2)ncn1 | > 35 µM (inactive) |  |
| O=C(Nc1cc(N2CCCCC2)ncn1)c1cccc2ccccc12 | > 35 µM (inactive) |  |
| CCN(CC)c1cc(NC(=O)c2ccccc2F)ncn1 | > 35 µM (inactive) |  |
| O=C(Nc1cc(N2CCCCC2)ncn1)c1ccco1 | > 35 µM (inactive) |  |
| O=C(Nc1cc(N2CCCCC2)ncn1)c1ccc(Cl)cc1 |  | 5.85 and 6.23 |
| Cc1nc(NC(=O)c2ccccc2)cc(N2CCCC2)n1 | > 35 µM (inactive) |  |
| COc1cc(OC)cc(C(=O)Nc2cc(N3CCCCC3)ncn2)c1 |  | 5.33 |
| O=C(Nc1cc(N2CCCCC2)ncn1)c1cccc(F)c1 | > 35 µM (inactive) |  |
| CN(C)c1cc(NC(=O)c2cccc(C#N)c2)ncn1 | > 35 µM (inactive) |  |
| Cc1nc(NC(=O)c2ccccc2)cc(N2CCCCC2)n1 | > 35 µM (inactive) |  |
| CC(C)CNc1cc(NC(=O)c2ccccc2)ncn1 | > 35 µM (inactive) |  |
| O=C(Nc1cc(N2CCCC2)ncn1)c1ccccc1F | > 35 µM (inactive) |  |
| O=C(Nc1cc(N2CCNCC2)ncn1)c1ccccc1 | > 35 µM (inactive) |  |
| O=C(Nc1cc(N2CCOCC2)ncn1)c1ccccc1 | > 35 µM (inactive) |  |
| O=C(Nc1cc(N2CCCCC2)ncn1)c1ccccc1Cl | > 35 µM (inactive) |  |
| CC(C)CNc1cc(NC(=O)c2cccc(F)c2)ncn1 | > 35 µM (inactive) |  |
| O=C(Nc1cc(N2CCCCC2)ncn1)c1ccccc1 | > 35 µM (inactive) |  |
| O=C(Nc1cc(N2CCCCCC2)ncn1)c1ccccc1 | > 35 µM (inactive) |  |
| O=C(Nc1cc(N2CCSCC2)ncn1)c1ccccc1 | > 35 µM (inactive) |  |
| Cc1ccc(C(=O)Nc2cc(N3CCCCC3)ncn2)cc1 |  | 5.46 |
| O=C(Nc1cc(N2CCCC2)ncn1)c1cccc(F)c1 | > 35 µM (inactive) |  |
| CCN(CC)c1cc(NC(=O)c2ccc(Br)o2)ncn1 | > 35 µM (inactive) |  |
| COc1cc(OC)cc(C(=O)Nc2cc(Nc3cccc(Cl)c3)ncn2)c1 | > 35 µM (inactive) |  |
| CCN(CC)c1cc(NC(=O)c2ccccc2)nc(C)n1 | > 35 µM (inactive) |  |
| CCN(CC)c1cc(NC(=O)c2cc(OC)cc(OC)c2)ncn1 | > 35 µM (inactive) |  |
| O=C(Nc1cc(N2CCCCC2)ncn1)c1ccc2ccccc2c1 |  | 5.59 |
